The text below walks through data of patent US20240294895A1, “ENZYMATIC COMPOSITIONS FOR CARBOHYDRATE ANTIGEN CLEAVAGE ON DONOR ORGANS, METHODS AND USES ASSOCIATED THEREWITH” (THE UNIVERSITY OF BRITISH COLUMBIA, priority 2018, published 2024).

For orientation: kcat/Km means the turnover number divided by the Michaelis constant.

Holding throughout (type): biochemical
Assay [1] relates to Flavonifractor plautii GalNAcDeacetylase FpGalNAcDeAc_D1min, mutant D100N. Description: Cleavage of A antigen Type2tetra-MU by FpGalNAcDeAc_D1min D100N. The settings on record: substrate depletion method for low-activity mutants. The protocol: kcat/KM parameter were determined for A antigen subtype 1/2/4tetra-MU at pH 7.4 at 37° C. […] The reactions were run as a series of four with controls (no FpGalNAcDeacetylase) as duplicates. The fluorescence signal (365/435 nm) resulting from MU release by hydrolysis was monitored on a Synergy H1™ plate reader (BioTek™) and converted to concentration using MU standard concentration curves determined under identical reaction conditions. […]
Based on structural information (not shown) and sequence alignment (not shown) FpGalNAcDeAc_D1min and FpGalNase_truncA were mutated using the QuickChange™ protocol (Zhang 2004), utilizing the primers noted in TABLE B. The mutants were purified via NiNTA and HIC columns as described above. The structural integrity of all mutants was checked via CD spectroscopy; all tested enzymes were structurally similar to their wild-type. For mutants with relatively low activity, reactions were carried out under the same conditions used for full kinetic determinations; however the substrate depletion method was used for determination of kcat/KM values as has been previously described (Vocadlo 2002). In brief: at low concentrations of substrate where [Substrate]<KM (equivalent to ˜⅕- 1/10 of Km) the kcat/KM value can be approximated upon non-linear fitting of the reaction time course to a first order curve and dividing by the enzyme concentration.

Assay [2] deals with Flavonifractor plautii GalNAcDeacetylase FpGalNAcDeAc_D1min, mutant H252A. Description: Cleavage of A antigen Type2tetra-MU by FpGalNAcDeAc_D1min H252A. The conditions noted are these: substrate depletion method for low-activity mutants. The protocol: (§1) kcat/KM parameter were determined for A antigen subtype 1/2/4tetra-MU at pH 7.4 at 37° C. Reactions (total volume of 100 μL) were performed in black 96-plate wells and as coupled assays in 100 mM NaH2PO4 (pH 7.4) with 12 nM FpGalNAcDeacetylase 0.1 mg/mL SpHex, BgaC (BgaA for subtype II), AfcA, at varying concentrations of substrate (25 μM, 20 μM, 15 μM, 10 μM, 7.5 μM, 5 μM). The reactions were run as a series of four with controls (no FpGalNAcDeacetylase) as duplicates. The fluorescence signal (365/435 nm) resulting from MU release by hydrolysis was monitored on a Synergy H1™ plate reader (BioTek™) and converted to concentration using MU standard concentration curves determined under identical reaction conditions. Initial rates (μM/s) were determined and plotted in Grafit™ 7.0 to determine the kcat/KM (s^−1*mM^−1) parameters.
(§2) Based on structural information (not shown) and sequence alignment (not shown) FpGalNAcDeAc_D1min and FpGalNase_truncA were mutated using the QuickChange™ protocol (Zhang 2004), utilizing the primers noted in TABLE B. The mutants were purified via NiNTA and HIC columns as described above. The structural integrity of all mutants was checked via CD spectroscopy; all tested enzymes were structurally similar to their wild-type. […]

Assay [3] concerns Flavonifractor plautii GalNAcDeacetylase FpGalNAcDeAc_D1min, mutant C99S. Description: Cleavage of A antigen Type2tetra-MU by FpGalNAcDeAc_D1min C99S. The settings on record: pH 7.4, 37° C. The procedure:
as §1, §2

Assay [4] relates to Flavonifractor plautii GalNAcDeacetylase FpGalNAcDeAc_D1min, mutant H252F. Description: Cleavage of A antigen Type2tetra-MU by FpGalNAcDeAc_D1min H252F. The settings on record: substrate depletion method for low-activity mutants. The procedure: as §1, with “Initial rates (μM/s) were determined and plotted in Grafit™ 7.0 to determine the kcat/KM (s^−1*mM^−1) parameters.” left out
as §2

The test system of assay [5] is Flavonifractor plautii GalNAcDeacetylase FpGalNAcDeAc_D1min, mutant C99A. Description: Cleavage of A antigen Type2tetra-MU by FpGalNAcDeAc_D1min C99A. The conditions noted are these: pH 7.4, 37° C. The procedure:
as §1, §2

In assay [6] the test system is Flavonifractor plautii GalNAcDeacetylase FpGalNAcDeAc_D1min, mutant Y315F. Description: Cleavage of A antigen Type2tetra-MU by FpGalNAcDeAc_D1min Y315F. The settings on record: substrate depletion method for low-activity mutants. The procedure: as §1, §2

As to `CC(=O)N[C@H]1[C@H](Oc2ccc3c(C)cc(=O)oc3c2)O[C@H](CO)[C@@H](O[C@@H]2O[C@H](CO)[C@H](O)[C@H](O[C@H]3O[C@H](CO)[C@H](O)[C@H](O)[C@H]3NC(C)=O)[C@H]2O[C@@H]2O[C@@H](C)[C@@H](O)[C@@H](O)[C@@H]2O)[C@@H]1O` [A antigen Type2tetra-MU], the kcat/Km was determined as 0.073 ± 0.005 min⁻¹ mM⁻¹ in assay [1]; 0.084 ± 0.012 min⁻¹ mM⁻¹ in assay [2]; 75.595 ± 2.491 min⁻¹ mM⁻¹ in assay [3]; 0.030 ± 0.002 min⁻¹ mM⁻¹ in assay [4]; 140.680 ± 5.798 min⁻¹ mM⁻¹ in assay [5]; 0.167 ± 0.039 min⁻¹ mM⁻¹ in assay [6].
